This note sets out measurements from US5703239A, “Indanylpiperidines as melatonergic agents” (Bristol-Myers Squibb Company, priority 1996, dated 1997).

The assay has as its target T1, human ML1B receptor (Homo sapiens, UniProt P49286).
T1 construct: expressed in transfected cells; host or cells: NIH 3T3 cells (stably transfected; obtained from S. M. Reppert)
T1 sequence (P49286 1-362): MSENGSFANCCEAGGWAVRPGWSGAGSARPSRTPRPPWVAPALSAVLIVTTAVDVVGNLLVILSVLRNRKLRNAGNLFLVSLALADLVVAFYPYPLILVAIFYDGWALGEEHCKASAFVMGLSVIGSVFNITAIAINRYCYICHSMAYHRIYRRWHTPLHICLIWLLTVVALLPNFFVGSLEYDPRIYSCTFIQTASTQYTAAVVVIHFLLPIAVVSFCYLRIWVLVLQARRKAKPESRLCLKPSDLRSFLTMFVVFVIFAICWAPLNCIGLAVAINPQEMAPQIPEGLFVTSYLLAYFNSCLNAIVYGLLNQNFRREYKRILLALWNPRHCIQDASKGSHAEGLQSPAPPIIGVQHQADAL
As to the kind of experiment: Binding to human melatonergic receptors (2-[125I]-iodomelatonin, NIH 3T3 cell membranes, human ML1B receptor). The following applies: IC50 class; 200 pM 2-[125I]-iodomelatonin, 37° C., 1 hour, membranes of NIH 3T3 cells transfected with human ML1B receptor; read-out: Melatonin Binding. The method, then: Measurement of Binding to Human Melatonergic Receptors The melatonergic binding affinities of various compounds of Formula I were determined by the method of Reppert, S. M., Weaver, D. R., and Ebisawa, R. (Neuron, Volume 13, 1177-1185, 1994). The assays were incubated at 37° C. for 1 hour, and the reaction was terminated by filtration. The filters were washed with wash buffer. […] The reagents, membrane and other techniques used in the melatonergic binding assays are more fully described below: […] Reagents: (a) 50 mM Tris buffer containing 12.5 mM MgCl2, and 2 mM EDTA, pH 7.4 at 37° C. (b) Wash buffer: 20 mM Tris base containing 2 mM MgCl2. pH 7.4 at room temperature. (c) Melatonin (10^-5 M final concentration). (d) 2-[^125 I]-Iodomelatonin, 200 pM final concentration Source: NEN 2. Membrane preparation: NIH 3T3 cells stably transfected with the human ML1B receptor were obtained from S. M. Reppert and maintained. Cells were pelleted when confluent. The supernatant was discarded and the pellets frozen. For preparing membrane homogenates, the pellets are thawed on ice and resuspended in TME buffer, Tris base, MgCl2, EDTA (pH 7.4 at 37° C.), supplemented with aprotinin, leupeptin, and […]. The cells were then homogenized and centrifuged. The resulting pellet was resuspended with a Dounce homogenizer in TME and frozen. At assay, a small aliquot was thawed on ice and resuspended in TME buffer.
`COc1ccc2c(c1)C(C1CCN(C(=O)c3ccco3)CC1)CC2` (stereo not drawn) [1-[(2-Furanyl)carbonyl]-4-(6-methoxy-indan-1-yl)-piperidine]: the IC50 was less than 10 nM.

On to `CCNC(=O)N1CCC(C2CCc3ccc(OCCCc4cccc(OC)c4)cc32)CC1` (stereo not drawn) [N-Ethyl-4-[6-[3-(3-methoxyphenyl)propyloxy]-indan-1-yl]piperidine-1-carboxamide], for which the IC50 lay in the range of 10 to 100 nM.

Turning to `COCC(=O)N1CCC(C2CCc3ccc(OC)cc32)CC1` (stereo not drawn) [4-(6-Methoxy-indan-1-yl)-1-(2-methoxy-acetyl)piperidine], the IC50 is less than 10 nM.

`CCc1ccc2c(c1)C(C1CCN(C(=O)C3CC3)CC1)CC2` (stereo not drawn) [1-(Cyclopropylcarbonyl)-4-(6-ethyl-indan-1-yl)piperidine]: the IC50 was less than 10 nM.

For the compound `CCNC(=O)N1CCC(C2CCc3ccc(F)cc32)CC1` (stereo not drawn) [N-Ethyl-4-(6-fluoro-indan-1-yl)piperidine-1-carboxamide], the IC50 is less than 10 nM.

In the case of `COc1ccc2c(c1)C(C1CCN(C(=O)c3ccc[nH]3)CC1)CC2` (stereo not drawn) [4-(6-Methoxy-indan-1-yl)-1-[(1H-pyrrol-2-yl)carbonyl]piperidine], the IC50 was less than 10 nM.

For the compound `CCCC(=O)N1CCC(C2CCc3ccc(F)cc32)CC1` (stereo not drawn) [1-Butanoyl-4-(6-fluoro-indan-1-yl)piperidine], the IC50 is less than 10 nM.

Regarding `COc1ccc2c(c1)C(C1CCN(C=O)CC1)CC2` (single isomer, unassigned; (-)) [(-)-1-Formyl-4-(6-methoxy-indan-1-yl)piperidine], the IC50 was less than 10 nM.

As to `CCNC(=O)N1CCC(C2CCc3ccccc32)CC1` (stereo not drawn) [N-Ethyl-4-(indan-1-yl)-piperidine-1-carboxamide], the IC50 fell in the range of 10 to 100 nM.

As to `COc1ccc2c(c1)C(C1CCN(C(=O)c3ccsc3)CC1)CC2` (stereo not drawn) [4-(6-Methoxy-indan-1-yl)-1-[(3-thienyl)carbonyl]piperidine], the IC50 was less than 10 nM.

For the compound `CCNC(=O)N1CCC(C2CCc3cc(F)c(OC)cc32)CC1` (stereo not drawn) [N-Ethyl-4-(5-fluoro-6-methoxy-indan-1-yl)piperidine-1-carboxamide], the IC50 lay within 10 to 100 nM.

In the case of `COc1ccc2c(c1)C(C1CCN(C(=O)C3CC3)CC1)CC2` (single isomer, unassigned; (-)) [(-)-1-(Cyclopropylcarbonyl)-4-(6-methoxy-indan-1-yl)piperidine], the IC50 was less than 10 nM.

With `CNC(=O)N1CCC(C2CCc3ccc(F)cc32)CC1` (stereo not drawn) [N-Methyl-4-(6-fluoro-indan-1-yl)piperidine-1-carboxamide], the IC50 lay in the range of 10 to 100 nM.

As for `CCCCC(=O)N1CCC(C2CCc3ccc(OC)cc32)CC1` (single isomer, unassigned; (-)) [(-)-4-(6-Methoxy-indan-1-yl)-1-pentanoylpiperidine], the IC50 is less than 10 nM.

With `CC(C)C(=O)N1CCC(C2CCc3ccc(F)cc32)CC1` (stereo not drawn) [4-(6-Fluoro-indan-1-yl)-1-(2-methylpropanoyl)piperidine], the IC50 was less than 10 nM.

For `CCC(C)C(=O)N1CCC(C2CCc3ccc(OC)cc32)CC1` (stereo not drawn) [4-(6-Methoxy-indan-1-yl)-1-(2-methylbutanoyl)piperidine], the IC50 is less than 10 nM.

`COc1cccc(CCCOc2ccc3c(c2)C(C2CCN(C(=O)C4CC4)CC2)CC3)c1` (stereo not drawn) [1-(Cyclopropylcarbonyl)-4-[6-[3-(3-methoxyphenyl)propyloxy]-indan-1-yl]piperidine]: the IC50 was 10 to 100 nM.

As for `COc1ccc2c(c1)C(C1CCN(C(C)=O)CC1)CC2` (single isomer, unassigned; (-)) [(-)-1-Acetyl-4-(6-methoxy-indan-1-yl)piperidine], the IC50 is less than 10 nM.

For the compound `COc1ccc2c(c1)C(C1CCN(C(=O)C3CC3)CC1)CC2` (single isomer, unassigned; (+)) [(+)-1-(Cyclopropylcarbonyl)-4-(6-methoxy-indan-1-yl)piperidine], the IC50 is less than 10 nM.

For `COc1ccc2c(c1)C(C1CCN(C(=O)C(C)C)CC1)CC2` (single isomer, unassigned; (-)) [(-)-4-(6-Methoxy-indan-1-yl)-1-(2-methyl-propanoyl)piperidine], the IC50 is less than 10 nM.

As to `COc1ccc2c(c1)C(C1CCN(C(=O)c3csnn3)CC1)CC2` (stereo not drawn) [4-(6-Methoxy-indan-1-yl)-1-[(1,2,3-thiadiazol-4-yl)carbonyl]piperidine], the IC50 was less than 10 nM.

Regarding `O=C(C1CC1)N1CCC(C2CCc3ccccc32)CC1` (stereo not drawn) [1-(Cyclopropylcarbonyl)-4-(indan-1-yl)piperidine], the IC50 is less than 10 nM.

On to `CCCC(=O)N1CCC(C2CCc3ccc(OC)cc32)CC1` (single isomer, unassigned; (-)) [(-)-1-Butanoyl-4-(6-methoxy-indan-1-yl)piperidine], for which the IC50 was less than 10 nM.

Regarding `CNC(=O)N1CCC(C2CCc3ccc(OC)cc32)CC1` (stereo not drawn) [N-Methyl-4-(6-methoxy-indan-1-yl)piperidine-1-carboxamide], the IC50 was less than 10 nM.

As for `CCNC(=O)N1CCC(C2CCc3ccc(OC)cc32)CC1` (single isomer, unassigned; (-)) [(-)-N-Ethyl-4-(6-methoxy-indan-1-yl)piperidine-1-carboxamide], the IC50 is less than 10 nM.

Turning to `COc1ccc2c(c1)C(C1CCN(C(=O)C3CC3)CC1)CC2` (stereo not drawn) [1-Cyclopropylcarbonyl-4-(6-methoxy-indan-1-yl)piperidine], the IC50 is less than 10 nM.

As to `CNC(=O)N1CCC(C2CCc3ccccc32)CC1` (stereo not drawn) [N-Methyl-4-(indan-1-yl)-piperidine-1-carboxamide], the IC50 is less than 10 nM.

As to `CCC(=O)N1CCC(C2CCc3cc(F)c(OC)cc32)CC1` (stereo not drawn) [4-(5-Fluoro-6-methoxy-indan-1-yl)-1-propanoylpiperidine], the IC50 is less than 10 nM.

For `COCC(=O)N1CCC(C2CCc3ccc(OC)cc32)CC1` (single isomer, unassigned; (+)) [(+)-1-(2-Methoxyacetyl)-4-(6-methoxy-indan-1-yl)piperidine], the IC50 is 100 to 250 nM.

Take `CCC(=O)N1CCC(C2CCc3ccc(OC)cc32)CC1` (single isomer, unassigned; (-)) [(-)-4-(6-Methoxy-indan-1-yl)-1-propanoylpiperidine]: the IC50 was less than 10 nM.

Turning to `O=C(C1CC1)N1CCC(C2CCc3ccc(O)cc32)CC1` (stereo not drawn) [N-(Cyclopropylcarbonyl)-4-(6-hydroxy-indan-1-yl)piperidine], the IC50 lay within 10 to 100 nM.

As for `COc1ccc2c(c1)C(C1CCN(C(=O)c3sccc3C)CC1)CC2` (stereo not drawn) [4-(6-Methoxy-indan-1-yl)-1-[(3-methyl-thien-2-yl)carbonyl]piperidine], the IC50 was less than 10 nM.

As for `COc1cc2c(cc1F)CCC2C1CCN(C(C)=O)CC1` (stereo not drawn) [1-Acetyl-4-(5-fluoro-6-methoxy-indan-1-yl)piperidine], the IC50 was less than 10 nM.

Regarding `COc1ccc2c(c1)C(C1CCN(C(=O)C3=CCCC3)CC1)CC2` (stereo not drawn) [1-[(Cyclopent-1-en-1-yl)carbonyl]-4-(6-methoxy-indan-1-yl)piperidine], the IC50 is less than 10 nM.

Turning to `COc1ccc2c(c1)C(C1CCN(C=O)CC1)CC2` (single isomer, unassigned; (+)) [(+)-1-Formyl-4-(6-methoxy-indan-1-yl)piperidine], the IC50 was in the range of 10 to 100 nM.

Turning to `CNC(=S)N1CCC(C2CCc3ccc(OC)cc32)CC1` (stereo not drawn) [N-Methyl-4-(6-methoxy-indan-1-yl)-piperidine-1-thiocarboxamide], the IC50 was less than 10 nM.

On to `COc1ccc2c(c1)C(C1CCN(C(=O)c3occc3C)CC1)CC2` (stereo not drawn) [4-(6-Methoxy-indan-1-yl)-1-[(3-methyl-furan-2-yl)carbonyl]piperidine], for which the IC50 was less than 10 nM.

Turning to `COc1ccc2c(c1)C(C1CCN(C(=O)c3ccc(C)s3)CC1)CC2` (stereo not drawn) [4-(6-methoxy-indan-1-yl)-1-[(5-methyl-thien-2-yl)carbonyl]piperidine], the IC50 lay in the range of 10 to 100 nM.

Consider `COc1ccc2c(c1)C(C1CCN(C(=O)C(C)C)CC1)CC2` (stereo not drawn) [4-(6-methoxy-indan-1-yl)-1-(2-methylpropanoyl)piperidine], for which the IC50 was less than 10 nM.

In the case of `CNC(=O)N1CCC(C2CCc3ccc(OC)cc32)CC1` (single isomer, unassigned; (-)) [(-)-N-Methyl-4-(6-methoxy-indan-1-yl)piperidine-1-carboxamide], the IC50 was less than 10 nM.

As for `COc1ccc2c(c1)C(C1CCN(C(=O)C(F)(F)F)CC1)CC2` (single isomer, unassigned; (+)) [(+)-4-(6-Methoxy-indan-1-yl)-1-(trifluoroacetyl)piperidine], the IC50 is 10 to 100 nM.

`COc1ccc2c(c1)C(C1CCN(C(=O)C(F)(F)F)CC1)CC2` (single isomer, unassigned; (-)) [(-)-4-(6-methoxy-indan-1-yl)-1-(trifluoroacetyl)piperidine]: the IC50 is less than 10 nM.
